Assay results taken from patent publication US10604524B2, “Pyrropyrimidine compounds as MNKs inhibitors” (LIFEARC, priority 2015, dated 2020).

Assays:
[1] = biological target: IRAK4 (Homo sapiens, UniProt Q9NWZ3); test: Kinase selectivity screen; conditions: read-out: % Inhibition IRAK4
[2] = biological target: PAK2 (Homo sapiens, UniProt Q13177); test: Kinase selectivity screen; conditions: read-out: % Inhibition PAK2
[3] = biological target: PTK6 (Homo sapiens, UniProt Q13882); test: Kinase selectivity screen; conditions: read-out: % Inhibition PTK6
[4] = biological target: RPS6KA5 (Homo sapiens, UniProt O75582); test: Kinase selectivity screen; conditions: read-out: % Inhibition RPS6KA5
[5] = biological target: CSNK1G1 (Homo sapiens, UniProt Q9HCP0); test: Kinase selectivity screen; conditions: read-out: % Inhibition CSNK1G1
Sequence of CSNK1G1 (Q9HCP0 whole entry, species assumed): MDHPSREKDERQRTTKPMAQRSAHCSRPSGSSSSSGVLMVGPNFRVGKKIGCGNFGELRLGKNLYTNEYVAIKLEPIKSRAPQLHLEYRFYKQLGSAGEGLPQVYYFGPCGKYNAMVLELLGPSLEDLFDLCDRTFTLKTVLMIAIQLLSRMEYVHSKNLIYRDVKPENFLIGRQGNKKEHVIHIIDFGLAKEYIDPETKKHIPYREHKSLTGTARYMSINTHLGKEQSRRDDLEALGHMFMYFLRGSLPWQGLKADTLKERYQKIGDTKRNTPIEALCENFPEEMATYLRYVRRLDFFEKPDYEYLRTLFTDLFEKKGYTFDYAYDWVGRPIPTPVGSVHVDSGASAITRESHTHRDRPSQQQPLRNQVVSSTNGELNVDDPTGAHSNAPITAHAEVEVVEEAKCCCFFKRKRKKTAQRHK

[6] = biological target: LYN (Homo sapiens, UniProt P07948); test: Kinase selectivity screen; conditions: read-out: % Inhibition LYN
[7] = biological target: RPS6KB1 (Homo sapiens, UniProt P23443); test: Kinase selectivity screen; conditions: read-out: % Inhibition RPS6KB1
[8] = biological target: MAPK14 (Homo sapiens, UniProt Q16539); test: Kinase selectivity screen; conditions: read-out: % Inhibition MAPK14
Sequence of MAPK14 (Q16539 whole entry, species assumed): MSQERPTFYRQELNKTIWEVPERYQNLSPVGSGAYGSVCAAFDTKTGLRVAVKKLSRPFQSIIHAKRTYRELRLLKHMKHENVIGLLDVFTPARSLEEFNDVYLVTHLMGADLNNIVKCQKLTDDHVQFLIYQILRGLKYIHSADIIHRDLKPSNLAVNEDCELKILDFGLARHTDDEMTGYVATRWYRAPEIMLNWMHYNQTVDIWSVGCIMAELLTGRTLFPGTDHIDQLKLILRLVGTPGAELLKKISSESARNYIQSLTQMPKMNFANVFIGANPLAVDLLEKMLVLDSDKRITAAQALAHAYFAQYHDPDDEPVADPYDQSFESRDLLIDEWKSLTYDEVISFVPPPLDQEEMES

[9] = biological target: PIK3C2G (Homo sapiens, UniProt O75747); test: Kinase selectivity screen; conditions: read-out: % Inhibition PIK3C2G
Sequence of PIK3C2G (O75747 whole entry, species assumed): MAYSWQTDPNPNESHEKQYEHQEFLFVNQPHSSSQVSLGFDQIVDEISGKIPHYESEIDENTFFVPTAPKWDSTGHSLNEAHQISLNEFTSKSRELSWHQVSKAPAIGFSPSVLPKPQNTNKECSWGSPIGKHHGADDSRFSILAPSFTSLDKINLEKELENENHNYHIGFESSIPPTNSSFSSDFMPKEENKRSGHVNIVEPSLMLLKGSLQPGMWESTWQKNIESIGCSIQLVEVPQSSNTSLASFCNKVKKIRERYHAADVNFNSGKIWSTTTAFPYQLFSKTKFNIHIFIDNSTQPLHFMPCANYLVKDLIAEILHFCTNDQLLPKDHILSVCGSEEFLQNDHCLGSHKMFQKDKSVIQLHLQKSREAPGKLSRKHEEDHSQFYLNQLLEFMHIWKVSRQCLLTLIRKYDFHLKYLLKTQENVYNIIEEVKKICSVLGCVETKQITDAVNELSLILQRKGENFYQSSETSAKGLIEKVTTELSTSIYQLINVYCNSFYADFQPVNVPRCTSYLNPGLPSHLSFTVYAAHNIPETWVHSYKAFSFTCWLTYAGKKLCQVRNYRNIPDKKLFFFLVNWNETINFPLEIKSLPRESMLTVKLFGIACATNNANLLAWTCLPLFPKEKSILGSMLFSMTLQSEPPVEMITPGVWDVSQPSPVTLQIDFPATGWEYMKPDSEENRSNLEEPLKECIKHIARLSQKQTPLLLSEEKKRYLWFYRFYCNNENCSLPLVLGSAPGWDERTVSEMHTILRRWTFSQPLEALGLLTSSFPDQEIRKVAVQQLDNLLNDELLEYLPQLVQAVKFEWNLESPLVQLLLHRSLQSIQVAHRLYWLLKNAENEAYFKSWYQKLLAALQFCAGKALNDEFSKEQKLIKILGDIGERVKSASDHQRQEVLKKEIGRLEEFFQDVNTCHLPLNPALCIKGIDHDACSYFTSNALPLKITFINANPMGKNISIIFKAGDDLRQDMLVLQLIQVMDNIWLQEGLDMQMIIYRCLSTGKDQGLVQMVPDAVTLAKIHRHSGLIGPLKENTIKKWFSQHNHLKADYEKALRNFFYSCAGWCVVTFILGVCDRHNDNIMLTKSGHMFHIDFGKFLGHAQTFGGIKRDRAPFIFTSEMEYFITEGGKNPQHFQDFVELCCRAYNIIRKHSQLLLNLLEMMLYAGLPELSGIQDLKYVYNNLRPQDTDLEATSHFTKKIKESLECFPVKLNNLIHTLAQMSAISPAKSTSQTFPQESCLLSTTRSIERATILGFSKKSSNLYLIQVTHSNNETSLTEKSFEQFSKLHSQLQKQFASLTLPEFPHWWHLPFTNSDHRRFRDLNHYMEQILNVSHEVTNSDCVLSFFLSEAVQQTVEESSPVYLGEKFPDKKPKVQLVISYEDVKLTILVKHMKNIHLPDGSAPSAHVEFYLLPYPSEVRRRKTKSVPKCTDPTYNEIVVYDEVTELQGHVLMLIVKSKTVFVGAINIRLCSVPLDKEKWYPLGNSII

[10] = biological target: LCK (Homo sapiens, UniProt P06239); test: Kinase selectivity screen; conditions: read-out: % Inhibition LCK
[11] = biological target: FYN (Homo sapiens, UniProt P06241); test: Kinase selectivity screen; conditions: read-out: % Inhibition FYN
[12] = biological target: NTRK1 (Homo sapiens, UniProt P04629); test: Kinase selectivity screen; conditions: read-out: % Inhibition NTRK1
[13] = biological target: PRAK (Homo sapiens, UniProt Q8IW41); test: Kinase selectivity screen; conditions: read-out: % Inhibition PRAK
[14] = biological target: CaMK1 (Homo sapiens, UniProt Q14012); test: Kinase selectivity screen; conditions: read-out: % Inhibition CaMK1
[15] = biological target: FGFR4 (Homo sapiens, UniProt P22455); test: Kinase selectivity screen; conditions: read-out: % Inhibition FGFR4
[16] = biological target: MET (Homo sapiens, UniProt P08581); test: Kinase selectivity screen; conditions: read-out: % Inhibition MET
Sequence of MET (P08581 25-1390): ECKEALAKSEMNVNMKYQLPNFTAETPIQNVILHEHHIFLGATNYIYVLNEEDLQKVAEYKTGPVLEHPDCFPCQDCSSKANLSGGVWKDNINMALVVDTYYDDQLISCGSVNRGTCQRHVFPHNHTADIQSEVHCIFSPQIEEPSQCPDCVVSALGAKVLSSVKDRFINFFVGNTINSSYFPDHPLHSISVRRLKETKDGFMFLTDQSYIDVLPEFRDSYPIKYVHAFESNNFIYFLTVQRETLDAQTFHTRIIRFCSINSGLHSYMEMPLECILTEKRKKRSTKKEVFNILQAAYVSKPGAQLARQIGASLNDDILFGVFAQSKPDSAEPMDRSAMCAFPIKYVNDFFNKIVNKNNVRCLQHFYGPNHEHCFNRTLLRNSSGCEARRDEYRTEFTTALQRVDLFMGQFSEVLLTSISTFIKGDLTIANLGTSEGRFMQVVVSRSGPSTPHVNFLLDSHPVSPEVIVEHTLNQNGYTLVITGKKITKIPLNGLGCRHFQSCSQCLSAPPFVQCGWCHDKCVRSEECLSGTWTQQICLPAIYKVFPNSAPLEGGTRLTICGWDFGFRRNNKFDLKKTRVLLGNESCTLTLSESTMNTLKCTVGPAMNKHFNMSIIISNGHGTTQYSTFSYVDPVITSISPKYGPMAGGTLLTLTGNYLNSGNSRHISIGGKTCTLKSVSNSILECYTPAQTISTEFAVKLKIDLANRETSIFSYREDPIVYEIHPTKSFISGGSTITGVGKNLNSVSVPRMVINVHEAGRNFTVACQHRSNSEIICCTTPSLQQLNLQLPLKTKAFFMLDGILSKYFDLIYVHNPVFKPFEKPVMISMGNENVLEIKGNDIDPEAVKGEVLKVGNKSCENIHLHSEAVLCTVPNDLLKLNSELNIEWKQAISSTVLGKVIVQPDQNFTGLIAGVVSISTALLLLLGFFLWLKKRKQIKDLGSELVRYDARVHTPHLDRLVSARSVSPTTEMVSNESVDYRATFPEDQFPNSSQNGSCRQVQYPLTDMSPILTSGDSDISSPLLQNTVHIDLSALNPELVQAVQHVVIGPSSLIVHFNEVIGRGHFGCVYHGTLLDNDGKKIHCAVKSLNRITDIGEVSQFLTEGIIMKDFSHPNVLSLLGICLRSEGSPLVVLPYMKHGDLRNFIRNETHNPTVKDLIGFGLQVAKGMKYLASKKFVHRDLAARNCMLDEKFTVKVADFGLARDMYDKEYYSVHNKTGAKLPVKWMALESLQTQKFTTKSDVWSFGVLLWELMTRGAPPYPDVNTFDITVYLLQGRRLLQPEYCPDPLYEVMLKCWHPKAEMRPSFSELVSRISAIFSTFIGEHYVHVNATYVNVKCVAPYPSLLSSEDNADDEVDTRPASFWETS

[17] = biological target: BTK (Homo sapiens, UniProt Q06187); test: Kinase selectivity screen; conditions: read-out: % Inhibition BTK
[18] = biological target: PLK1 (Homo sapiens, UniProt P53350); test: Kinase selectivity screen; conditions: read-out: % Inhibition PLK1
[19] = biological target: PRKAA2 (Homo sapiens, UniProt P54646); test: Kinase selectivity screen; conditions: read-out: % Inhibition PRKAA2
[20] = biological target: GSK3A (Homo sapiens, UniProt P49840); test: Kinase selectivity screen; conditions: read-out: % Inhibition GSK3A
[21] = biological target: MAP2K7 (Homo sapiens, UniProt O14733); test: Kinase selectivity screen; conditions: read-out: % Inhibition MAP2K7
[22] = biological target: FGFR2 (Homo sapiens, UniProt P21802); test: Kinase selectivity screen; conditions: read-out: % Inhibition FGFR2
[23] = biological target: KIT (Homo sapiens, UniProt P10721); test: Kinase selectivity screen; conditions: read-out: % Inhibition KIT
[24] = biological target: JAK3 (Homo sapiens, UniProt P52333); test: Kinase selectivity screen; conditions: read-out: % Inhibition JAK3
[25] = biological target: ACVR1B (Homo sapiens, UniProt P36896); test: Kinase selectivity screen; conditions: read-out: % Inhibition ACVR1B
[26] = biological target: BLK (Homo sapiens, UniProt P51451); test: Kinase selectivity screen; conditions: read-out: % Inhibition BLK
[27] = biological target: NEK2 (Homo sapiens, UniProt P51955); test: Kinase selectivity screen; conditions: read-out: % Inhibition NEK2
[28] = biological target: ABL1 (Homo sapiens, UniProt P00519); test: Kinase selectivity screen; conditions: read-out: % Inhibition ABL1
[29] = biological target: PIK3CG (Homo sapiens, UniProt P48736); test: Kinase selectivity screen; conditions: read-out: % Inhibition PIK3CG
[30] = biological target: BMX (Homo sapiens, UniProt P51813); test: Kinase selectivity screen; conditions: read-out: % Inhibition BMX
[31] = biological target: CDK2/CCNA2 (Homo sapiens, UniProt P24941); test: Kinase selectivity screen; conditions: read-out: % Inhibition CDK2/CCNA2
[32] = biological target: AXL (Homo sapiens, UniProt P30530); test: Kinase selectivity screen; conditions: read-out: % Inhibition AXL
Sequence of AXL (P30530 26-894, species assumed): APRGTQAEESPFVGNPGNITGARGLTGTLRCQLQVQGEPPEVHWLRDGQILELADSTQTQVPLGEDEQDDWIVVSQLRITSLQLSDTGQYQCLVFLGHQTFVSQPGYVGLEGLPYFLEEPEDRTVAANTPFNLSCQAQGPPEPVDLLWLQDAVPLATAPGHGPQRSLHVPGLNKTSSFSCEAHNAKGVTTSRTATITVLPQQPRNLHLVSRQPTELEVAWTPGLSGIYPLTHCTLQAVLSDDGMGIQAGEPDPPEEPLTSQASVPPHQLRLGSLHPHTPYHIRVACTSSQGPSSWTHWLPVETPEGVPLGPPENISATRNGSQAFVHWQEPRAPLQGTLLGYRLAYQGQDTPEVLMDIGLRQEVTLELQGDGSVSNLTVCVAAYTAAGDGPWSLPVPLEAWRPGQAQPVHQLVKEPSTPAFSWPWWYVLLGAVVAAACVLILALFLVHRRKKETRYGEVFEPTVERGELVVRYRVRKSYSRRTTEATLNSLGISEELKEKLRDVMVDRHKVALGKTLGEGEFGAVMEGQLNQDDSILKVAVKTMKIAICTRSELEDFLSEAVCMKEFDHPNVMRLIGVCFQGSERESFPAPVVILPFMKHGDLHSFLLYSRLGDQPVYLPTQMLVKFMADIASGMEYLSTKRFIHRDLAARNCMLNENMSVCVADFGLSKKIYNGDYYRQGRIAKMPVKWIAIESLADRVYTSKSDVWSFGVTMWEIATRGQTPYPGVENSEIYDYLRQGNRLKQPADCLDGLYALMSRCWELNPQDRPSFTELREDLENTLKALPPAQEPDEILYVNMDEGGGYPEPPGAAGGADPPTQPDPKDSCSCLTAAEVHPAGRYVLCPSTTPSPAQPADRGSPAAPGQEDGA

[33] = biological target: PRKG1 (Homo sapiens, UniProt Q13976); test: Kinase selectivity screen; conditions: read-out: % Inhibition PRKG1
[34] = biological target: Full-length human MNK1 (Homo sapiens, UniProt Q9BUB5, T385D); test: MNK1 biochemical IC50 assay (Caliper mobility shift)

Sequence of IRAK4 (Q9NWZ3 whole entry, species assumed): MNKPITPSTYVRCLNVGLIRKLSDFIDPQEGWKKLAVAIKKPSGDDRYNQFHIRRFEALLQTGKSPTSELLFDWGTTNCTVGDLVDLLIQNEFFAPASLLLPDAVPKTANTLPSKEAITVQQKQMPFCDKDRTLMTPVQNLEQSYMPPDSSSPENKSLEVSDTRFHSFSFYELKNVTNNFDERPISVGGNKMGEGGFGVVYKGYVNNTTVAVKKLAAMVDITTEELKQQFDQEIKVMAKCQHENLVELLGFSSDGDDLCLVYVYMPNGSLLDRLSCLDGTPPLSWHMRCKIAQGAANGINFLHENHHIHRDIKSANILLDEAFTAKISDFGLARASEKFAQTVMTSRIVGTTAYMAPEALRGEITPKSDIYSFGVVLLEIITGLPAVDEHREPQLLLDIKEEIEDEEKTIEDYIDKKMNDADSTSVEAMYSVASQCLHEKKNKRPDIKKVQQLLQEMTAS

CC(C)Oc1cc(F)ccc1Nc1ncnc2cc(C(=O)NCCCN(C)C)n(C)c12 [Example 40, N-[3-(dimethylamino)propyl]-4-{[4-fluoro-2-(propan-2-yloxy)phenyl]amino}-5-methyl-5H-pyrrolo[3,2-d]pyrimidine-6-carboxamide]
inhibition at 1 µM [1]: 0% | inhibition at 1 µM [2]: 0% | inhibition at 1 µM [3]: 0% | inhibition at 1 µM [4]: 0% | inhibition at 1 µM [5]: 0% | inhibition at 1 µM [6]: 11% | inhibition at 1 µM [7]: 0% | inhibition at 1 µM [8]: 0% | inhibition at 1 µM [9]: 4% | inhibition at 1 µM [10]: 0% | inhibition at 1 µM [11]: 0% | inhibition at 1 µM [12]: 0% | inhibition at 1 µM [13]: 0% | inhibition at 1 µM [14]: 0% | inhibition at 1 µM [15]: 0% | inhibition at 1 µM [16]: 13% | inhibition at 1 µM [17]: 0% | inhibition at 1 µM [18]: 0% | inhibition at 1 µM [19]: 0% | inhibition at 1 µM [20]: 0% | inhibition at 1 µM [21]: 0% | inhibition at 1 µM [22]: 0% | inhibition at 1 µM [23]: 2% | inhibition at 1 µM [24]: 0% | inhibition at 1 µM [25]: 0% | inhibition at 1 µM [26]: 4% | inhibition at 1 µM [27]: 0% | inhibition at 1 µM [28]: 0% | inhibition at 1 µM [29]: 1% | inhibition at 1 µM [30]: 0% | inhibition at 1 µM [31]: 0% | inhibition at 1 µM [32]: 0% | inhibition at 1 µM [33]: 0% | IC50 [34]: 50.1 nM
